Measured values taken from PubChem BioAssay AID328 (DTP/NCI, 2004).
Several values for one entry are separate records, joined by “and”; a condition that tells them apart may be missing. Identical values can stand only once. Inconclusive results and toxic doses are left out. Rule for the calls: active = survival T/C of 150% or more; inactive = T/C below 125% in these data.

Test system: BDF1 mice, P388 leukemia ip, median survival T/C
Experiment: NCI In Vivo Anticancer Drug Screen. Data for tumor model P388 Leukemia (intraperitoneal) in B6D2F1 (BDF1) mice
Settings: endpoint: median survival time, higher = longer survival
Method in brief: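 In tumour-bearing mice, survival after compound treatment is set against the vehicle group and given as a quotient.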

[1] = dose: 100.0 mg/kg/injection, schedule: Q04DX003 (ip), vehicle: saline with Tween-80
[2] = dose: 100.0 mg/kg/injection, schedule: Q01DX001 (ip), vehicle: saline with Tween-80
[3] = dose: 200.0 mg/kg/injection, schedule: Q01DX001 (ip), vehicle: saline with Tween-80
[4] = dose: 400.0 mg/kg/injection, schedule: Q01DX001 (ip), vehicle: saline with Tween-80
[5] = dose: 100.0 mg/kg/injection, schedule: Q01DX009 (ip), vehicle: saline with Tween-80
[6] = dose: 200.0 mg/kg/injection, schedule: Q01DX009 (ip), vehicle: saline with Tween-80
[7] = dose: 400.0 mg/kg/injection, schedule: Q01DX009 (ip), vehicle: saline with Tween-80
[8] = dose: 25.0 mg/kg/injection, schedule: Q01DX009 (ip), vehicle: saline with Tween-80
[9] = dose: 50.0 mg/kg/injection, schedule: Q01DX009 (ip), vehicle: saline with Tween-80
[10] = dose: 100.0 mg/kg/injection, schedule: Q01DX009 (ip), vehicle: Klucel (hydroxypropylcellulose) (HPC)
[11] = dose: 200.0 mg/kg/injection, schedule: Q01DX009 (ip), vehicle: Klucel (hydroxypropylcellulose) (HPC)
[12] = dose: 12.5 mg/kg/injection, schedule: Q01DX009 (ip), vehicle: saline with Tween-80
[13] = dose: 100.0 mg/kg/injection, schedule: Q04DX003 (ip), vehicle: other
[14] = dose: 200.0 mg/kg/injection, schedule: Q04DX003 (ip), vehicle: other

Measured: T/C

Oc1ccc2ccccc2c1/C=N\Sc1ccc(Br)cc1
inactive: dose: 25.0 mg/kg/injection, schedule: Q04DX003 (ip), vehicle: saline with Tween-80 103 % of control | dose: 50.0 mg/kg/injection, schedule: Q04DX003 (ip), vehicle: saline with Tween-80 100 % of control | [1] 112 % of control

O=C1OI(OI2OC(=O)c3ccccc32)c2ccccc21 (tested in a mixture with another compound)
inactive: dose: 50.0 mg/kg/injection, schedule: Q01DX001 (ip), vehicle: saline with Tween-80 101 % of control | [2] 101 % of control and 103 % of control | [3] 108 % of control and 120 % of control | [4] 117 % of control and 124 % of control

CC(=O)Oc1c(Br)c(-c2cc([N+](=O)[O-])c(C)c([N+](=O)[O-])c2C)c(OC(C)=O)c(Br)c1-c1cc([N+](=O)[O-])c(C)c([N+](=O)[O-])c1C
inactive: dose: 50.0 mg/kg/injection, schedule: Q01DX001 (ip), vehicle: Klucel (hydroxypropylcellulose) (HPC) 112 % of control | dose: 100.0 mg/kg/injection, schedule: Q01DX001 (ip), vehicle: Klucel (hydroxypropylcellulose) (HPC) 115 % of control | dose: 200.0 mg/kg/injection, schedule: Q01DX001 (ip), vehicle: Klucel (hydroxypropylcellulose) (HPC) 115 % of control | dose: 400.0 mg/kg/injection, schedule: Q01DX001 (ip), vehicle: Klucel (hydroxypropylcellulose) (HPC) 106 % of control

Cc1ccc(S(=O)(=O)Oc2cc(C)ccc2C)cc1
inactive: dose: 25.0 mg/kg/injection, schedule: Q04DX003 (ip), vehicle: Klucel (hydroxypropylcellulose) (HPC) 105 % of control | dose: 50.0 mg/kg/injection, schedule: Q04DX003 (ip), vehicle: Klucel (hydroxypropylcellulose) (HPC) 95 % of control | [5] 114 % of control | dose: 100.0 mg/kg/injection, schedule: Q04DX003 (ip), vehicle: Klucel (hydroxypropylcellulose) (HPC) 105 % of control | [6] 109 % of control | [7] 114 % of control

CCOC(=O)NCCc1ccc(OC)c(OC)c1
inactive: [8] 109 % of control | [9] 124 % of control | [5] 89 % of control | [6] 106 % of control | [7] 107 % of control

CC(CN)OCc1ccccc1 (stereo unspecified)
inactive: dose: 12.5 mg/kg/injection, schedule: Q04DX003 (ip), vehicle: saline 100 % of control | dose: 50.0 mg/kg/injection, schedule: Q04DX003 (ip), vehicle: saline 100 % of control

COc1cccc(/C=C/C(=O)O)c1OC
inactive: dose: 25.0 mg/kg/injection, schedule: Q04DX003 (ip), vehicle: water 106 % of control | dose: 50.0 mg/kg/injection, schedule: Q04DX003 (ip), vehicle: water 103 % of control | dose: 100.0 mg/kg/injection, schedule: Q04DX003 (ip), vehicle: water 112 % of control | dose: 200.0 mg/kg/injection, schedule: Q04DX003 (ip), vehicle: water 106 % of control | dose: 400.0 mg/kg/injection, schedule: Q04DX003 (ip), vehicle: water 97 % of control

CCCCCCCCCCC(O)CN1CCN(c2ccc(C)cc2)CC1 (stereo unspecified)
inactive: [5] 100 % of control | dose: 100.0 mg/kg/injection, schedule: Q04DX003 (ip), vehicle: saline sonified 100 % of control | dose: 176.0 mg/kg/injection, schedule: Q04DX003 (ip), vehicle: saline with Tween-80 90 % of control | [6] 100 % of control | dose: 200.0 mg/kg/injection, schedule: Q04DX003 (ip), vehicle: saline sonified 115 % of control | dose: 264.0 mg/kg/injection, schedule: Q04DX003 (ip), vehicle: saline with Tween-80 90 % of control | [7] 90 % of control

Cc1ccc2c(c1)Oc1ccccc1N=C2
inactive: [9] 97 % of control | [5] 103 % of control | [6] 97 % of control

O=c1[nH]c2cc(Cl)c(Cl)cc2o1
inactive: dose: 50.0 mg/kg/injection, schedule: Q01DX009 (ip), vehicle: Klucel (hydroxypropylcellulose) (HPC) 115 % of control | [9] 104 % of control | [10] 115 % of control | [5] 100 % of control | [1] 100 % of control | [11] 110 % of control | [6] 104 % of control | dose: 200.0 mg/kg/injection, schedule: Q04DX003 (ip), vehicle: saline with Tween-80 95 % of control

Cc1cnc(O[Si](C)(C)C)nc1O[Si](C)(C)C
inactive: [5] 100 % of control | [6] 91 % of control | [7] 116 % of control

Nc1ccccc1C(=O)Nc1ncn[nH]1
inactive: [9] 96 % of control | [5] 90 % of control | [6] 94 % of control

CC(OC(=O)Nc1ccccc1)C(=O)O (stereo unspecified)
inactive: [5] 88 % of control | [6] 92 % of control | [7] 103 % of control

CC(C)NC(=O)c1ccccc1S(=O)(=O)c1ccccc1C(=O)NC(C)C
inactive: [2] 108 % of control | [3] 100 % of control | [4] 100 % of control

Cc1ccc(Nc2nc(N)nc(N)c2N)cc1Cl
inactive: dose: 33.0 mg/kg/injection, schedule: Q01DX009 (ip), vehicle: saline with Tween-80 120 % of control

c1ccc(CCN2COc3c(ccc4cccnc34)C2)cc1
inactive: [1] 95 % of control

O=C1CNC(=O)c2cc(N=Cc3cc(Br)ccc3O)ccc2N1
inactive: [9] 99 % of control | [5] 89 % of control | [6] 100 % of control

O=C(Nc1ccccc1C(=O)O)c1cc([N+](=O)[O-])cc([N+](=O)[O-])c1
inactive: [9] 117 % of control

COCOS(C)(=O)=O
inactive: dose: 100.0 mg/kg/injection, schedule: Q04DX003 (ip), vehicle: saline 95 % of control | dose: 200.0 mg/kg/injection, schedule: Q04DX003 (ip), vehicle: saline 120 % of control

COC1OC(CO)C(O)C(O)C1O (stereo unspecified)
inactive: dose: 6.25 mg/kg/injection, schedule: Q01DX009 (ip), vehicle: saline 97 % of control | dose: 12.5 mg/kg/injection, schedule: Q01DX009 (ip), vehicle: saline 106 % of control | dose: 25.0 mg/kg/injection, schedule: Q01DX009 (ip), vehicle: saline 97 % of control | dose: 100.0 mg/kg/injection, schedule: Q01DX009 (ip), vehicle: saline 104 % of control | dose: 200.0 mg/kg/injection, schedule: Q01DX009 (ip), vehicle: saline 106 % of control

CC(C)CC(B1OCCO1)(C1CCCCC1)C1CCCCC1
inactive: [12] 100 % of control | [8] 100 % of control | [9] 90 % of control | [13] 109 % of control | [14] 122 % of control | dose: 400.0 mg/kg/injection, schedule: Q04DX003 (ip), vehicle: other 122 % of control

COc1cc(N=Nc2c[nH]c3ccccc23)c(OC)cc1N=Nc1ccc([N+](=O)[O-])cc1
inactive: dose: 50.0 mg/kg/injection, schedule: Q01DX005 (ip), vehicle: saline with Tween-80 92 % of control | dose: 100.0 mg/kg/injection, schedule: Q01DX005 (ip), vehicle: saline with Tween-80 106 % of control | dose: 200.0 mg/kg/injection, schedule: Q01DX005 (ip), vehicle: saline with Tween-80 111 % of control

CCC(=O)OCc1ccc(Cl)cc1
inactive: dose: 75.0 mg/kg/injection, schedule: Q04DX003 (ip), vehicle: Klucel (hydroxypropylcellulose) (HPC) 100 % of control | dose: 150.0 mg/kg/injection, schedule: Q04DX003 (ip), vehicle: Klucel (hydroxypropylcellulose) (HPC) 100 % of control | dose: 300.0 mg/kg/injection, schedule: Q04DX003 (ip), vehicle: Klucel (hydroxypropylcellulose) (HPC) 100 % of control

CCCC(=O)c1cc(O)c(O)cc1O
inactive: [12] 95 % of control | [8] 104 % of control | [9] 106 % of control

O=S(=O)(Nc1ccc(-c2ccccc2)cc1)c1ccccc1
inactive: [9] 108 % of control | [5] 101 % of control | [6] 101 % of control | [7] 106 % of control

CN(C)C(=O)c1ccc(C(C)(C)C)cc1
inactive: dose: 12.5 mg/kg/injection, schedule: Q01DX009 (ip), vehicle: other 104 % of control | dose: 12.5 mg/kg/injection, schedule: Q04DX003 (ip), vehicle: other 106 % of control | dose: 25.0 mg/kg/injection, schedule: Q01DX009 (ip), vehicle: other 103 % of control | dose: 25.0 mg/kg/injection, schedule: Q04DX003 (ip), vehicle: other 121 % of control | dose: 50.0 mg/kg/injection, schedule: Q01DX009 (ip), vehicle: other 113 % of control | dose: 50.0 mg/kg/injection, schedule: Q04DX003 (ip), vehicle: other 97 % of control | dose: 100.0 mg/kg/injection, schedule: Q01DX009 (ip), vehicle: other 101 % of control | [13] 106 % of control | [14] 95 % of control

S=C(Cc1ccccc1)N1CCN(c2ccc(Cl)cc2)CC1
inactive: [9] 104 % of control | [5] 100 % of control | [6] 100 % of control

O=C1NC(c2ccc3ccccc3n2)Nc2ccccc21 (stereo unspecified)
inactive: [10] 105 % of control | [11] 100 % of control | dose: 400.0 mg/kg/injection, schedule: Q01DX009 (ip), vehicle: Klucel (hydroxypropylcellulose) (HPC) 110 % of control
